From patent US5668144A, “1-azabicyclopheptane derivatives” (American Home Products Corporation, priority 1996, dated 1997)

Legend:
[1] = test system: scopolamine disrupted rat performance; assay: Eight arm radial maze, reversal of scopolamine disrupted rat performance; format: in vivo, Sprague-Dawley male rats; details: ip, test compound i.p., scopolamine HBr 0.3 mg/kg s.c., read-out: minimum effective dose (MED), reversal of scopolamine disrupted rat performance
Experimental: The compound of Example 3 was also tested in the eight arm radial maze test procedure in which Sprague-Dawley male rats at 85% of their free feeding weight are trained to obtain two food pellets from food cups placed at the ends of four of the eight arms radiating from a circular central area of the maze, in a five minute period. After training to a level of error (return to a previously entered arm is error) equal to or less than 2, the rats performance is disrupted with scopolamine HBr (0.3 mg/kg, s.c.) and test compound dosage (i.p.). The number of errors are then determined and compared with control receiving scopolamine alone.

[2] = test system: scopolamine treated animals; assay: Reversal of scopolamine hyperactivity, mouse swim tank test; format: in vivo, Male CFW mice; details: ip, scopolamine HBr 0.3 mg/kg, read-out: minimum effective dose (MED), reversal of hyperactivity of scopolamine treated animals
Experimental: The compound of Example 3, representative of the other compounds of this invention, was also tested in accordance with the procedure of Symons et al, Soc. Neuroscience Abstracts 12:2, 897 (1986) in which Male CFW mice, 25 to 35 grams in weight are given the test compound in suitable vehicle plus 0.3 mg/kg scopolamine. HBr in suitable vehicle, i.p.(3 groups of 12 animals each) or vehicle alone (1 group of 12 animals ) or vehicle plus scopolamine. HBr (1 group of 12 animals). The mice are placed in a swim tank, individually, containing 10 cm H2 O for a period of 5 minutes and the distance each animal swims is recorded.

m1 receptors = details: cited from earlier work
[3] = quaternary ammonium group; cited from earlier work
[4] = target: T1, M1 acetylcholine receptors (Homo sapiens, UniProt P11229); assay: PI hydrolysis stimulation in CHO cells expressing M1 acetylcholine receptors (muscarinic m1 agonism); format: cell-based; details: exo versus endo azacycloheptane analog
T1 sequence (P11229 1-460): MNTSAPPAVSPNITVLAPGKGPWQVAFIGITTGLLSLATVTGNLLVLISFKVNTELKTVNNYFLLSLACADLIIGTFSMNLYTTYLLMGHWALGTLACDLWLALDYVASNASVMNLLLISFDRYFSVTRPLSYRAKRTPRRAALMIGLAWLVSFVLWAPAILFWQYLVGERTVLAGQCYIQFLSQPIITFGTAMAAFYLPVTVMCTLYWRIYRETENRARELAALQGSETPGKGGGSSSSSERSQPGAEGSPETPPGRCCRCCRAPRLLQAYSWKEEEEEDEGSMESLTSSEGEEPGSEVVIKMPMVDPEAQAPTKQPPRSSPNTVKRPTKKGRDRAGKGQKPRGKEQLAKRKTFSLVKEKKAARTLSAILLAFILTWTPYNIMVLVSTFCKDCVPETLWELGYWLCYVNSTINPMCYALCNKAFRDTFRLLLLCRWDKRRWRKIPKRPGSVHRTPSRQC

muscarinic receptors = details: disclosed in earlier patents; cited from earlier work
[5] = test system: patients with mild to moderate Alzheimer's Disease; details: cited from earlier work; for memory in patients (in words): mild to moderate Alzheimer's Disease
[6] = in vivo; cited from earlier work

CNC(=O)O[C@@H]1CN2CC[C@@H]1C2 (single isomer, unassigned) [Example 2, (+)-(exo)-Methylcarbamic acid 1-aza-bicyclo[2.2.1]hept-3-yl ester]
minimal effective dose [1]: 1 mg/kg

CNC(=O)O[C@@H]1CN2CC[C@@H]1C2 (single isomer, unassigned) [Example 3, (-)-(exo)-Methylcarbamic acid 1-aza-bicyclo[2.2.1]hept-3-yl ester]
minimal effective dose [2]: 30 mg/kg

C[C@@H]1O[C@H](C[N+](C)(C)C)C[C@H]1O [muscarine]
activation of m1 receptors (in words) (m1 receptors): able to fully activate m1 receptors | ability to enter the CNS (in words) [3]: not able to enter the CNS

CNC(=O)O[C@@H]1CN2CC[C@H]1C2 (relative stereo) [endo azacycloheptane analog]
muscarinic agonism (in words) [4]: not

CNC(=O)OC1CN2CCCC1C2 (stereo not drawn) [exo-1-azabicyclo[3.2.1]oct-6-yl-N-methylcarbamate]
muscarinic activity (in words) (muscarinic receptors): muscarinic activity

CNC(=O)OC1CC2CCCN(C2)C1 (stereo not drawn) [exo-1-azabicyclo[3.3.1]non-3-yl-N-methylcarbamate]
muscarinic activity (in words) (muscarinic receptors): muscarinic activity

CN(C)C(=O)OC1CC2CCCN(C2)C1 (stereo not drawn) [exo-1-azabicyclo[3.3.1]non-3-yl-N,N-dimethylcarbamate]
muscarinic activity (in words) (muscarinic receptors): muscarinic activity

C[N+](C)(C)CCOC(N)=O [carbachol]
ability to enter the CNS (in words) [3]: not able to enter the CNS

CNC(=O)O[C@@H]1CN2CC[C@@H]1C2 (relative stereo) [Example 1, (exo)-Methylcarbamic acid 1-aza-bicyclo[2.2.1]hept-3-yl ester]
muscarinic agonism (in words) [4]: enhanced muscarinic agonism

Nc1c2c(nc3ccccc13)CCCC2 [tacrine]
adverse side effects (in words) ([5]; especially at the higher doses where it is most effective): adverse side effects especially at the higher doses | memory in patients (in words) [5]: improvement in memory

COC(=O)C1=CCCN(C)C1 [Arecoline]
half-life (in words) [6]: short | memory in patients (in words) [5]: memory improvement
